# Experimental data as given in ChEMBL document CHEMBL1201862, “PubChem BioAssay data set” (2004).
# Where “and” joins values, the source holds several entries; their conditions need not be identical. Identical values can stand only once. Calls of active or inactive are those of the source.
# What was measured:
# [1] = cytotoxicity toward NIH3T3 fibroblasts, dose response, counter-screen, cell-based, ATP luminescence, mouse fibroblasts (AID 2010); type: functional;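 also: cells exposed to compound for about 90 hours before reading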
# [2] = inhibitors of intracellular T. cruzi replication, confirmation, NIH3T3 host cells, beta-gal luminescence (AID 2044); type: functional, cell-based;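 also: intracellular parasites grown in NIH/3T3 mouse fibroblasts as host cells; luminescent beta-galactosidase reporter signal from transgenic T. cruzi replicating inside host cells; inhibitors lower the luminescence signal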
# [3] = target: E3 ubiquitin-protein ligase Mdm2/Protein Mdm4 (Homo sapiens, UniProt O15151+Q00987); experiment: Mdm2-MdmX interaction inhibitors, dose response, luminescence detection (AID 504593); type: functional
# [4] = target: T1, Ubiquitin-conjugating enzyme E2 N (Homo sapiens, UniProt P61088); type: functional;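 also: Dose-response confirmation in a TR-FRET assay detecting UBC13-driven polyubiquitin chain formation, inhibition measured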
# T1 sequence (P61088 whole entry): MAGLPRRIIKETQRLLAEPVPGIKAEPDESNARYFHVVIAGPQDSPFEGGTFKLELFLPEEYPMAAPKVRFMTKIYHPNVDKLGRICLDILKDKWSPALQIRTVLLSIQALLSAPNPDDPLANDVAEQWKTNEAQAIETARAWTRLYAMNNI
# [5] = THP-1 cell cytotoxicity, dose response, cytotoxicity control for non-replicating M. tuberculosis project (AID 489025); type: functional
# [6] = HepG2 cell cytotoxicity, dose response, cytotoxicity control for non-replicating M. tuberculosis project (AID 489018); type: functional; settings: Mycobacterium tuberculosis
# Protein Wnt-3a = Protein Wnt-3a (Mus musculus, UniProt P27467); experiment: Wnt3a-driven reporter signaling inhibition, dose response, selectivity assay for Gli-SUFU antagonist project, Wnt-LIGHT cells, luminescence (AID 651570); type: functional; settings: read-out: IC50_Mean;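 also: Wnt-LIGHT reporter cells stimulated with conditioned medium from Wnt3a-producing cells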
# [7] = tested on: Streptococcus sp. 'group A'; experiment: growth inhibition of control SK(-) GAS strain, dose response, counter-screen for streptokinase expression inhibitor project, luminescence, kanamycin, BacTiterGlo, confirmation (AID 1900); type: functional, organism-based
# Streptococcus = experiment: Group A Streptococcus viability loss, dose response, counter-screen for streptokinase expression inhibitor project, luminescence, BacTiterGlo (AID 1915); type: functional, organism-based;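 also: potency for reduction of bacterial viability or growth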
# cells = type: functional
# [8] = Vero E6 cell cytotoxicity, dose response, cytotoxicity control for non-replicating M. tuberculosis project, secondary assay (AID 492998); type: functional, VeroE6; settings: Vero C1008
# [9] = target: T2, Microphthalmia-associated transcription factor (Homo sapiens, UniProt O75030); experiment: TRPM1 promoter luciferase signal decrease, dose response, MITF inhibitor project, cell-based, SK-MEL-5, cherry-picked, set 3 (AID 493073); type: functional
# T2 sequence (O75030 whole entry): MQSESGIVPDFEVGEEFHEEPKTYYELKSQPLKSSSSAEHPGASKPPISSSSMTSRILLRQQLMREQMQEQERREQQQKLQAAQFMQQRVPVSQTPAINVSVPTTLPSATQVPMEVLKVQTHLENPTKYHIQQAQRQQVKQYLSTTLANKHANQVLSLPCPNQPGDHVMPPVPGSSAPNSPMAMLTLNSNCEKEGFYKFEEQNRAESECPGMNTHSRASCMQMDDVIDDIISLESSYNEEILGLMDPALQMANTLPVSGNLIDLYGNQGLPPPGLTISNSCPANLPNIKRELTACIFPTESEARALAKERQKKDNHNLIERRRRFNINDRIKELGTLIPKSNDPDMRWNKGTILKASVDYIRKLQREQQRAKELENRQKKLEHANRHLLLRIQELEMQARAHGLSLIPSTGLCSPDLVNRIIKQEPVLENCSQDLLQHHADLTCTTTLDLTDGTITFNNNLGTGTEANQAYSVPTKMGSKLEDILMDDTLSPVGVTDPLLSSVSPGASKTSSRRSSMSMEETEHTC
# [10] = target: G-protein coupled receptor 55 (Homo sapiens, UniProt Q9Y2T6); experiment: GPR55 antagonists blocking LPI-driven arrestin recruitment, primary screen, imaging, U2OS, beta-arrestin-GFP, LPI agonist (AID 2013); type: functional;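 also: antagonist potency measured as reduced agonist-driven arrestin aggregation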
# G-protein coupled receptor 55, sequence (Q9Y2T6 whole entry): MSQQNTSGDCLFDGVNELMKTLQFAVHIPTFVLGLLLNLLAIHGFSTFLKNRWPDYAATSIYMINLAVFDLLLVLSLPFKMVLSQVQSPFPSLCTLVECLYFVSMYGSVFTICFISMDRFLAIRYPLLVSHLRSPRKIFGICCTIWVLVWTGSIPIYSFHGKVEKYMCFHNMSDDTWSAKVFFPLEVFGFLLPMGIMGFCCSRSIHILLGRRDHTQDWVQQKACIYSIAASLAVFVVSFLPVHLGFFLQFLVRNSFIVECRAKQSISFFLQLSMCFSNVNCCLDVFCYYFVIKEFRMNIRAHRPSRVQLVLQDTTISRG
# Trypanosoma cruzi = experiment: growth inhibition of intracellular Trypanosoma cruzi, dose response, cell-based, plate reader, dry powder, set 3 (AID 493197); type: functional
# [11] = cytotoxicity in NIH/3T3 mouse fibroblasts, dose response, cytotoxicity control, cell-based, mouse embryonic fibroblasts, dry powder, set 2 (AID 493247); type: functional; settings: Fibroblast
# [12] = target: Nucleotide-binding oligomerization domain-containing protein 2 (Homo sapiens, UniProt Q9HC29); experiment: NOD2 signaling inhibitors, cell-based, luminescence, uHTS, HEK293 (AID 1566); type: functional
# Nucleotide-binding oligomerization domain-containing protein 2, sequence (Q9HC29 whole entry, the tested form may be a part): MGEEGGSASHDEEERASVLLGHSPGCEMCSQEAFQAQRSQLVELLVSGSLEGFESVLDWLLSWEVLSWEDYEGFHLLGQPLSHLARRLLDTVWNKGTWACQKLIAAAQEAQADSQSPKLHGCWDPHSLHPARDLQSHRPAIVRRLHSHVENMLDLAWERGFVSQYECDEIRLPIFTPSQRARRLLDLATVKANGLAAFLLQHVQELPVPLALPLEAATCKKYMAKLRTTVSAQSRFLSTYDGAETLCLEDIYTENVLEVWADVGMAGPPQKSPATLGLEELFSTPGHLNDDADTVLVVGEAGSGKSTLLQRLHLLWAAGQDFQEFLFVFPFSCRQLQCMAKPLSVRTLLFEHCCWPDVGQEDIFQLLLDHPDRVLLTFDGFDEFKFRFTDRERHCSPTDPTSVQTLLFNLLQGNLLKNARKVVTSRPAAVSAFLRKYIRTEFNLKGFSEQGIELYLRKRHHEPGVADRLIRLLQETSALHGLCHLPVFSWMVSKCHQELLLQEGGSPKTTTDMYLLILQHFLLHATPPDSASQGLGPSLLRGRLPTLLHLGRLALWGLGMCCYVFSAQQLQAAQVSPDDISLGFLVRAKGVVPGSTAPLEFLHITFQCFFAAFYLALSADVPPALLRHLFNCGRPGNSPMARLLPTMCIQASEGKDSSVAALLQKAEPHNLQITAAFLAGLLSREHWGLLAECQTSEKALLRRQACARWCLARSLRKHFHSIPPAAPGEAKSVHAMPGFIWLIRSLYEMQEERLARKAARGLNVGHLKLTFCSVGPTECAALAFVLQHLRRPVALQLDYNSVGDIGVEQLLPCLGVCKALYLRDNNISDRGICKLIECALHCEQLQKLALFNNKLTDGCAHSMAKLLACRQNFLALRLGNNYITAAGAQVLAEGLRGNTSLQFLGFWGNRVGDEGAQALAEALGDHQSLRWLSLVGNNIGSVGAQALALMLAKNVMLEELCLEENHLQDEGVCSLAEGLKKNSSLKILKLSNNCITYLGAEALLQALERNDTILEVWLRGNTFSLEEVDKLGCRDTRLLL
# HEK293 [13] = experiment: cells; type: functional, cell-based; settings: Homo sapiens
# HEK293 [14] = experiment: NOD2 signaling inhibitors in MDP-stimulated cells, cell-based, uHTS, luminescence (AID 2001); type: functional; settings: Homo sapiens
# HEK293 [15] = experiment: cells; type: functional, cell-based; settings: Homo sapiens; remark: listed apart in the source
# HEK293 [16] = experiment: cells; type: functional, cell-based; settings: Homo sapiens; remark: listed apart in the source
# HEK293 [17] = experiment: NOD1 signaling inhibitors, primary screen, cell-based, luminescence, uHTS (AID 1578); type: functional; settings: Homo sapiens
# [18] = target: T3, Type-1 angiotensin II receptor (Homo sapiens, UniProt P30556); experiment: AT1 receptor agonists, dose response, selectivity assay for APJ receptor agonist project, cell-based, uHTS hits (AID 488865); type: functional;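 also: beta-arrestin recruitment to AT1 measured by enzyme fragment complementation luminescence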
# T3 sequence (P30556 whole entry): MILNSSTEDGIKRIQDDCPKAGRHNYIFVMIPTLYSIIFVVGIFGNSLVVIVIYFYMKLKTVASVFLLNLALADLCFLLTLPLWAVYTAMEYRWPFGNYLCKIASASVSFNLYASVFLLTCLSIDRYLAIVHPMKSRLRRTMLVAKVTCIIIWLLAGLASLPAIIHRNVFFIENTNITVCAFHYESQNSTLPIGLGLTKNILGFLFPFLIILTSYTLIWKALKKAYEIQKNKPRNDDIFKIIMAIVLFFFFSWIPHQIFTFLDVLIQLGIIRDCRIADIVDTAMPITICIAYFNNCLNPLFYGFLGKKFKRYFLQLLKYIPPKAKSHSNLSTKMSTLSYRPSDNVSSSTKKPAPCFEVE
# [19] = target: T4, Dual specificity protein phosphatase 3 (Homo sapiens, UniProt P51452); experiment: SAR VHR1 Fluorescent Assay for In Vitro dose response studies. [Related pubchem assays (depositor defined):AID1654, AID1661, AID1878, AID1992, AID2004, AID2070, AID2085]; type: functional
# T4 sequence (P51452 whole entry): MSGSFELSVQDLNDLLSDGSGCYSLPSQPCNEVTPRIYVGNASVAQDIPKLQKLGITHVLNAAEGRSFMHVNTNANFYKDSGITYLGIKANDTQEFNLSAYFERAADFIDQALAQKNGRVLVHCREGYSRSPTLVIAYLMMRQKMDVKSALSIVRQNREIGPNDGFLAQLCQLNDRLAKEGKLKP
# [20] = target: T5, Tyrosine-protein phosphatase non-receptor type 7 (Homo sapiens, UniProt P35236); experiment: SAR analysis of chemical inhibitors of HePTP using a Fluorescent assay - Set 2. [Related pubchem assays (depositor defined):AID1059, AID1077, AID1661, AID2085, AID521]; type: functional
# T5 sequence (P35236 whole entry): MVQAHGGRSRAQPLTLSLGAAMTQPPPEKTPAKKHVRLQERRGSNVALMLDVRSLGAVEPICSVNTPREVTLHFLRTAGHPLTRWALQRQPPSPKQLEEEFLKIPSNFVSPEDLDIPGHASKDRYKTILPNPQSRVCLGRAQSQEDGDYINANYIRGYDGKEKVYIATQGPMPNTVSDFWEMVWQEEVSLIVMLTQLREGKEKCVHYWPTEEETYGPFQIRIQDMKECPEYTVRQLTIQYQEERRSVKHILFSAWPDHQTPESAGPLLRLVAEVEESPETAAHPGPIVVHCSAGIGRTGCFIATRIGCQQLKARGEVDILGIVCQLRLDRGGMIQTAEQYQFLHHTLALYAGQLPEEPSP
# [21] = target: T4, Dual specificity protein phosphatase 3; experiment: SAR VHR1 absorbance Assay for In Vitro dose response studies. [Related pubchem assays (depositor defined):AID1654, AID1661, AID1878, AID1992, AID2004]
# [22] = target: T6, Dual specificity protein phosphatase 6 (Rattus norvegicus, UniProt Q64346); type: functional
# T6 sequence (Q64346 whole entry): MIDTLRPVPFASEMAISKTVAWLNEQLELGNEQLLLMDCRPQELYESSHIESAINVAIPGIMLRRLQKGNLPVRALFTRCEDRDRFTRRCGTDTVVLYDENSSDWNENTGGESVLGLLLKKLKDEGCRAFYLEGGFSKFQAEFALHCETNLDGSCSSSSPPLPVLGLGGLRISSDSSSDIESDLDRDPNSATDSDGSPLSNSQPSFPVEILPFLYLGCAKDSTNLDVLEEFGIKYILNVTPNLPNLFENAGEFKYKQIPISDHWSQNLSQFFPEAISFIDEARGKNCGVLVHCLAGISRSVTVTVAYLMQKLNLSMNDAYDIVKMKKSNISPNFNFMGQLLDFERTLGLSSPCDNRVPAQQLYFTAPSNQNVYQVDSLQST
# [23] = target: T4, Dual specificity protein phosphatase 3; experiment: SAR VHR1 Fluorescent Assay for In Vitro dose response studies Set 2. [Related pubchem assays (depositor defined):AID1654, AID1661, AID1878]; type: functional
# [24] = target: T6, Dual specificity protein phosphatase 6; experiment: SAR analysis of inhibitors of MKP-3 - Set 2. [Related pubchem assays (depositor defined):AID1055, AID1661, AID425, AID553, AID566]; type: functional
# [25] = target: T5, Tyrosine-protein phosphatase non-receptor type 7; experiment: redox-dependent HePTP inhibition, mechanism study, biochemical, fluorescence (AID 2068); type: functional
# [26] = target: Eukaryotic translation initiation factor 4H (Homo sapiens, UniProt Q15056); experiment: eIF4H inhibition in translation initiation, SAR follow-up (AID 435011); type: functional
# [27] = target: Polyadenylate-binding protein 1 (Homo sapiens, UniProt P11940); experiment: PABP inhibition in translation initiation, SAR follow-up (AID 435018); type: functional
# Polyadenylate-binding protein 1, sequence (P11940 whole entry): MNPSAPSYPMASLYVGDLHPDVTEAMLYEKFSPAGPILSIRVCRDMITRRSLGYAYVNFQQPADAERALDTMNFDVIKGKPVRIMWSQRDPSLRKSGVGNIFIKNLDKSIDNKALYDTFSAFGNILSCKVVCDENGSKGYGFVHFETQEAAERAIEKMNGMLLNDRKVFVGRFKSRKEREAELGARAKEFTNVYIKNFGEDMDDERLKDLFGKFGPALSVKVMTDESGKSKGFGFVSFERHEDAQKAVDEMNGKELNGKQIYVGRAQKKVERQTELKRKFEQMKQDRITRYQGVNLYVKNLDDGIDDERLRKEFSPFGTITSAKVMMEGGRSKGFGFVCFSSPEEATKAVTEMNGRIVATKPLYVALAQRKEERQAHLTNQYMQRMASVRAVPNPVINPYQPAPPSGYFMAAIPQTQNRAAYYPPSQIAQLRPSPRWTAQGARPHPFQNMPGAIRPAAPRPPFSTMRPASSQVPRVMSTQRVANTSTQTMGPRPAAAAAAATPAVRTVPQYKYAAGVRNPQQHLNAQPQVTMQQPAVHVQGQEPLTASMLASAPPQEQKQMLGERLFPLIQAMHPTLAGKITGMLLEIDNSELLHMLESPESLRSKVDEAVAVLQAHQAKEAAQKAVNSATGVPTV
# [28] = target: Voltage-dependent T-type calcium channel subunit alpha-1H (Homo sapiens, UniProt O95180); experiment: Cav3.2 T-type channel inhibitors, cell-based, synthetic library set 1, calcium flux (AID 493022); type: functional
# Voltage-dependent T-type calcium channel subunit alpha-1H, sequence (O95180 whole entry): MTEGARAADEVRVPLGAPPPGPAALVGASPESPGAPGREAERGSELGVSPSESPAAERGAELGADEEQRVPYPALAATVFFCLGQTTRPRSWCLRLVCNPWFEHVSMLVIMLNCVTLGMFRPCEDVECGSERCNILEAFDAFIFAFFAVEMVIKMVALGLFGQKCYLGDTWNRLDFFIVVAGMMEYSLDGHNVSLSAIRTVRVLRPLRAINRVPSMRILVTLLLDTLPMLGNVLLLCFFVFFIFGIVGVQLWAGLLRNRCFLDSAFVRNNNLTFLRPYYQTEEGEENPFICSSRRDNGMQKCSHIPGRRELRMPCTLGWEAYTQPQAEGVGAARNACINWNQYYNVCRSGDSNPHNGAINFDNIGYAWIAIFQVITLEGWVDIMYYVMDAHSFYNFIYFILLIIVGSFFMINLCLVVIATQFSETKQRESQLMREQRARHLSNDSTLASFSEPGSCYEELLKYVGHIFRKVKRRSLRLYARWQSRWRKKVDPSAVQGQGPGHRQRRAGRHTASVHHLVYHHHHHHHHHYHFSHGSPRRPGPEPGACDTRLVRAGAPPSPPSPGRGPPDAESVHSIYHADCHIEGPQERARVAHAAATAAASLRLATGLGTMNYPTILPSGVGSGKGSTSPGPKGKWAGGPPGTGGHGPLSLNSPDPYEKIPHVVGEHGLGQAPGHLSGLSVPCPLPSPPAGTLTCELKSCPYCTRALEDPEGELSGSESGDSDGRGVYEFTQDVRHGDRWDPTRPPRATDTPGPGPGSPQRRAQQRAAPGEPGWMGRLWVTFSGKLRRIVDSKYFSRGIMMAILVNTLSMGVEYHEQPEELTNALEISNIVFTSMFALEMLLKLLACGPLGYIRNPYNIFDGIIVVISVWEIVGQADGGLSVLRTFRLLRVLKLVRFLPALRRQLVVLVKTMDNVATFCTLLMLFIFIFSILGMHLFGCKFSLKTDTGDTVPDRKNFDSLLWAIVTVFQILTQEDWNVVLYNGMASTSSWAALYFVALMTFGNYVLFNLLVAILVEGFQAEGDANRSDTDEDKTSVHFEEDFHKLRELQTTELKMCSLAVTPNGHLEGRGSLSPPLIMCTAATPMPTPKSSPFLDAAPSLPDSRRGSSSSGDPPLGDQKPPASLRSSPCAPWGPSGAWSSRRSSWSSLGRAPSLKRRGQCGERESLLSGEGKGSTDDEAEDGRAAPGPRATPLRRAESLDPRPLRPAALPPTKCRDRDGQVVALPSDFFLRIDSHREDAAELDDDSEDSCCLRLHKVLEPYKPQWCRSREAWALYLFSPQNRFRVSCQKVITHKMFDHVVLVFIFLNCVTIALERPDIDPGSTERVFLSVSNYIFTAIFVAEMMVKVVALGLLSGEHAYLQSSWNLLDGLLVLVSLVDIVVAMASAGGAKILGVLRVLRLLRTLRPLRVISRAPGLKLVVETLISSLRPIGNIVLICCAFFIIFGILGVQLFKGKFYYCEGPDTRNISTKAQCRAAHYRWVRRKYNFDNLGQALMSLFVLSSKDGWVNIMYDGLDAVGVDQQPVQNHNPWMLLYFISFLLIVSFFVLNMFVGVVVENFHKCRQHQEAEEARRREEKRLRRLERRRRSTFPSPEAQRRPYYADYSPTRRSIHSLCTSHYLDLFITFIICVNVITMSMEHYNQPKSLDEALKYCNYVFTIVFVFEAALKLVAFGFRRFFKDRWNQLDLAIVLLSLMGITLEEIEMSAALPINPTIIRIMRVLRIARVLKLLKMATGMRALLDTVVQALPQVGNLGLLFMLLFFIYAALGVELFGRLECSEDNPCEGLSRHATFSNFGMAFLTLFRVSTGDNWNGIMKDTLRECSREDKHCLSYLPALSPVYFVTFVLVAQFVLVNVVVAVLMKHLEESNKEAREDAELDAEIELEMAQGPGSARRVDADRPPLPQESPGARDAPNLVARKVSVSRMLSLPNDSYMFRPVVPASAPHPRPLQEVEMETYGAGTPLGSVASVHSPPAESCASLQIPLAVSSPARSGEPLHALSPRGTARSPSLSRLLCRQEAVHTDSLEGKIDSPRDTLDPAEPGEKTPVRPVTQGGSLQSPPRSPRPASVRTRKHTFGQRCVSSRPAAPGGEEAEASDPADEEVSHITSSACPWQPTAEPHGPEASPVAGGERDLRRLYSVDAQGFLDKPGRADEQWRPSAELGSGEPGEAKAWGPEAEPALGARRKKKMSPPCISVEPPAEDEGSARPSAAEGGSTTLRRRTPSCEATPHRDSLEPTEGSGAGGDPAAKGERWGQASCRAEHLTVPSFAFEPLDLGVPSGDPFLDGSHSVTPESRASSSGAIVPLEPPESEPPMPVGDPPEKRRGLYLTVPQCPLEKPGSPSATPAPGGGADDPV
# [29] = target: T7, Alkaline phosphatase, tissue-nonspecific isozyme (Homo sapiens, UniProt P05186); experiment: SAR assay for compounds inhibiting TNAP in the absence of phosphate acceptor performed in a luminescent assay. [Related pubchem assays (depositor defined):AID1548, AID1659, AID518]
# T7 sequence (P05186 whole entry): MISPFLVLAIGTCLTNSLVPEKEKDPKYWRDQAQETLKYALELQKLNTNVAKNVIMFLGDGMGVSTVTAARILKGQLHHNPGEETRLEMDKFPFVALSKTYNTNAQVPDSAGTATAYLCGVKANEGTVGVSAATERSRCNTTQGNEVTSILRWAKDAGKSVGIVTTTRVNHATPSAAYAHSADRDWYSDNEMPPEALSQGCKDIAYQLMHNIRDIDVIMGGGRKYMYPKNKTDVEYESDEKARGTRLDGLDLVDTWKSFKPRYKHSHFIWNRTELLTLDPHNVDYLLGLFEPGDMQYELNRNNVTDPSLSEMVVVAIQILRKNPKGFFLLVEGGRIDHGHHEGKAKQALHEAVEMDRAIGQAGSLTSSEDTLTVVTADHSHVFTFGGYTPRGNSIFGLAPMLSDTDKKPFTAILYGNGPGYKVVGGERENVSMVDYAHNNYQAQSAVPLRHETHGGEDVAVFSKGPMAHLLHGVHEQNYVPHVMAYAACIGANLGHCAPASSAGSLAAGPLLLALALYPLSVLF
# [30] = target: Glyceraldehyde-3-phosphate dehydrogenase (Homo sapiens, UniProt P04406)
# [31] = target: Alkaline phosphatase, placental type (Homo sapiens, UniProt P05187); experiment: PLAP enzyme inhibitors, confirmation, biochemical, luminescence (AID 1512); type: functional
# Alkaline phosphatase, placental type, sequence (P05187 whole entry): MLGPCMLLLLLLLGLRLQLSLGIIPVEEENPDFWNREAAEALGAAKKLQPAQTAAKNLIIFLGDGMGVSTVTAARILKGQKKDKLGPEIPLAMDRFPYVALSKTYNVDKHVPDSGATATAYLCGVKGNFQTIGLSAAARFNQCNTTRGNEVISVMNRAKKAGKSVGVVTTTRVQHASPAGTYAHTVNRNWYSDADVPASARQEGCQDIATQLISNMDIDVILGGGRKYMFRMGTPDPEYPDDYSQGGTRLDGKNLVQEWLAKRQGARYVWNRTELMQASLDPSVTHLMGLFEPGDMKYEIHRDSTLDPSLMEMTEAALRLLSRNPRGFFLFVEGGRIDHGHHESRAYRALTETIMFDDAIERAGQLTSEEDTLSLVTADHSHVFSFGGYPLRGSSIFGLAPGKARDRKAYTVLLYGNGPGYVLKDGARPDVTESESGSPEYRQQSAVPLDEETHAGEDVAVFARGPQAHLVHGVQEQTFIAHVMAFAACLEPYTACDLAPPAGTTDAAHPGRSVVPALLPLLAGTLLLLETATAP
# [32] = target: T7, Alkaline phosphatase, tissue-nonspecific isozyme; experiment: human TNAP enzyme inhibitors, SAR follow-up, biochemical, luminescent, dose response (AID 1056)
smiles,measurement,setting,value
COc1ccc(-c2cc3c(=O)n(CC(=O)NCCCN4CCC(N5CCCCC5)CC4)nc(C)n3n2)cc1,EC50,[1],> 60 µM (not active)
same,EC50,[2],3.09 µM (active)
same,IC50,[3],9.38 µM (active)
same,IC50,[4],> 20 µM (inactive)
CCCCCCn1c(=O)c(C(=O)Nc2cnccn2)c(O)c2ccccc21,CC50,[5],3.51 µM (active)
same,CC50,[6],10.2 µM (active)
same,IC50,Protein Wnt-3a,3.55 µM (active)
same,EC50,[7],3 µM (active)
same,EC50,Streptococcus,13 µM (active)
same,IC50,cells,5.03 µM (active)
same,CC50,[8],7.38 µM (active)
same,AC50,[9],3.68 µM (active)
Cc1ccccc1CSCCNC(=O)c1ccc(N(C)S(=O)(=O)c2ccccc2)cc1,IC50,[10],3 µM (active)
COc1ccc(CN2CCCC(C(=O)N3CCc4ccccc4C3)C2)cc1OC (stereo not drawn),AC50,Trypanosoma cruzi,3.54 µM (active)
same,AC50,[11],41.7 µM (active)
C=CCn1c(O)c(N=NC(=S)Nc2cccc(OC)c2)c2ccccc21,EC50,[1],4.49 µM (active)
same,EC50,[2],0.589 µM (active)
same,EC50,[12],> 20 µM (inactive)
same,IC50,HEK293 [13],> 20 µM (inactive)
same,IC50,HEK293 [14],1.76 µM (active)
same,IC50,HEK293 [15],3.41 µM (active)
same,IC50,HEK293 [16],> 20 µM (inactive)
same,EC50,HEK293 [17],> 20 µM (inactive)
COc1cc2c(cc1NC(=O)c1cc(-c3ccncc3)nc3ccc(C)cc13)oc1ccccc12,EC50,[18],> 100 µM (inactive)
CCOc1ccc(-n2c(N)c(C(=O)N3CCN(C)CC3)sc2=S)cc1,IC50,[19],> 99 µM (inactive)
same,IC50,[20],> 100 µM (inactive)
same,IC50,[21],> 100 µM (inactive)
same,IC50,[22],> 99 µM (inactive)
same,IC50,[23],> 100 µM (inactive)
same,IC50,[24],> 100 µM (inactive)
same,IC50,[25],> 100 µM (inactive)
O=C(Nc1ccccc1)C1CCN(C(=O)c2cccs2)CC1,IC50,[26],21.4 µM (active)
same,IC50,[27],7.49 µM (active)
Cc1ccc(-c2nnc(NC(=O)C(C)(C)Oc3ccccc3)o2)cc1C,EC50,[28],2.1 µM (active)
COc1ccc(C)cc1S(=O)(=O)Nc1cccnc1,IC50,[29],16.6 µM (active) and 16.4 µM (active)
same,IC50,[30],> 100 µM (not active)
same,IC50,[31],> 100 µM (inactive)
same,IC50,[32],2.34 µM (active) and 1.6 µM (active)
